We go through nine molecules from patent US8952128B2, “Somatostatin-dopamine chimeric analogs” (priority 2012, dated 2015).

Experiment [1] addresses T1, hDRD2 (Homo sapiens (Human), UniProt P14416). The experiment is described as follows: cell-based.
Procedure: (§5) The ability of select compounds according to the present invention to activate hSSTR2 and hDRD2 was determined by the intracellular calcium mobilization assay using FLIPR Calcium 4 assay kit (Molecular Devices).
(§6) Cells expressing hSSTR2 or hDRD2 were plated in 384-well microplates in tissue culture media and incubated for 16-24 hours at 37° C. in a humidified atmosphere with 5% CO2. Medium was replaced by loading buffer containing Hank's buffered saline, 20 mM HEPES, 2.5 mM probenecid and Calcium 4 dye, and the plates were incubated at 37° C. for 60 minutes.
Experiment [2] addresses T2, hSSTR2 (Homo sapiens (Human), UniProt P30874). Description: Intracellular calcium mobilization assay (FLIPR Calcium 4), hSSTR2.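 For all read-outs here: agonist activity read as intracellular calcium rise in cells expressing human SSTR2, loaded with a calcium-sensitive dye for 60 min at 37 °C, measured by FLIPR.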 The format is cell-based. The following applies: for Emax: read-out: hSSTR2 % Emax ± SEM.
Procedure: as §5, §6
The subject of experiment [3] is pituitary tumor cells of acromegalic patients presenting with macroadenoma. The experiment is described as follows: Human pituitary adenoma cell growth hormone release assay. The conditions noted are these: 18 hours incubation, FIG. 5. The format is cell-based. Here is the method: FIG. 1 is a graph showing the Growth hormone suppressing activity of Compound 4 (see Table I hereinbelow for its chemical name and its corresponding structural representation) on pituitary tumor cells of acromegalic patients presenting with macroadenoma. Various concentrations of Compound 4 were added to the medium and the cells were incubated for 18 hours before measurement of Growth hormone levels in the medium using the AlphaLISA Growth Hormone Immunoassay Research kit (PerkinElmer).
Various concentrations of Compounds 4 and 5 were added to the medium and the cells were incubated for 18 hours before measurement of Growth hormone levels in the medium using the AlphaLISA Growth Hormone Immunoassay Research kit (PerkinElmer).
Acromegalic patients presenting with macroadenoma underwent transsphenoidal surgery and a portion of each tumor obtained at surgery was dissociated by enzymatic and mechanical methods. The cells were cultured in DMEM medium supplemented with 10% FBS and antibiotics for 3 days. The cells were then plated in multi-well tissue culture dishes coated with extracellular matrix from bovine endothelial corneal cells at a density of 3-5×10^4 cells/well in DMEM supplemented with 10% FBS and antibiotics. After 2-3 days of culture, the medium was changed to DMEM supplemented with 1% FBS, antibiotics and 1% ITS (insulin, transferrin and selenium).

Experiment [4] concerns the target T1, hDRD2. The format is binding. The following applies: CHO-K1 membranes, [3H]-spiperone; read-out: hDRD2 Ki (nM) ± SEM.
The target in the next experiment is hSSTR3 (Homo sapiens (Human), UniProt P32745). The experiment is described as follows: Somatostatin receptor radioligand binding assay, hSSTR3. The following applies: CHO-K1 membranes, [125I-Tyr11]-SRIF-14; read-out: hSSTR3 Ki (nM) ± SEM. Here is the method:
(§1) The affinities of a test compound for the human somatostatin receptors were determined by radioligand binding assays in CHO-K1 cells stably transfected with each of the human somatostatin receptor subtypes, hSSTR1-5. […] Clonal cell lines stably expressing each of the somatostatin receptors were obtained by transfection into CHO-K1 cells (ATCC) and subsequently selected with culture media containing 0.8 mg/mL of G418 (Life Technologies).
(§2) Membranes for in vitro receptor binding assays were obtained by the following procedures. CHO-K1 cells expressing one of the somatostatin receptors were homogenized in ice-cold buffer with 10 mM Tris-HCl, 5 mM EDTA, 3 mM EGTA, 1 mM phenylmethylsuphonyl fluoride, pH 7.6, using Polytron PT10-35GT (Kinematica) at 18,000 rpm for 30 seconds and centrifuged at 500×g for 10 minutes. The supernatant containing the plasma membranes was centrifuged at 100,000×g for 30 minutes and the pellet was resuspended in buffer containing 20 mM glycine-glycine, 1 mM MgCl2, 250 mM sucrose, pH 7.2, for storage at −80° C.
(§3) For the hSSTR3 and 4 assays, membranes and various concentrations of test compounds were incubated in 96-well plates for 60 minutes at 25° C. with 0.05 nM [^125I-Tyr^11]-SRIF-14 (PerkinElmer Life Science) in 50 mM HEPES, 0.2% BSA, 5 mM MgCl2, 200 KIU/mL trasylol, 0.02 mg/mL bacitracin, and 0.02 mg/mL phenylmethylsuphonyl fluoride, pH 7.5.
(§4) The incubations were terminated by rapid filtration through GF/C glass microfiber filter plates (pre-wet with 0.3% polyethyleneimine and 0.1% BSA) using a 96-well cell harvester (Brandel). Plates were washed six times with 1 mL/well aliquots of ice-cold buffer containing 50 mM Tris buffer, pH 7.7. Specific binding was defined as the total radioligand bound minus the bound in the presence of 1000 nM SRIF-14.

Another experiment deals with hSSTR4 (Homo sapiens (Human), UniProt P31391). Description: Somatostatin receptor radioligand binding assay, hSSTR4. The conditions noted are these: CHO-K1 membranes, [125I-Tyr11]-SRIF-14; read-out: hSSTR4 Ki (nM) ± SEM. Here is the method: as §1, §2, §3, §4
Experiment [5] deals with T2, hSSTR2. The experiment is described as follows: Somatostatin receptor radioligand binding assay, hSSTR2. The conditions noted are these: CHO-K1 membranes, [125I-Tyr]-seglitide; read-out: hSSTR2 Ki (nM) ± SEM.
Procedure: The affinities of a test compound for the human somatostatin receptors were determined by radioligand binding assays in CHO-K1 cells stably transfected with each of the human somatostatin receptor subtypes, hSSTR1-5. The cDNA coding sequences of hSSTR1 (GenBank accession No. NM—001049.1), hSSTR2 (GenBank accession No. XM—012697.1), hSSTR3 (GenBank accession No. XM—009963.1), hSSTR4 (GenBank accession No. NM—001052.1), and hSSTR5 (GenBank accession No. XM—012565.1) were subcloned into the mammalian expression vector pcDNA3.1 (Life Technologies). Clonal cell lines stably expressing each of the somatostatin receptors were obtained by transfection into CHO-K1 cells (ATCC) and subsequently selected with culture media containing 0.8 mg/mL of G418 (Life Technologies).
Membranes for in vitro receptor binding assays were obtained by the following procedures. […] The supernatant containing the plasma membranes was centrifuged at 100,000×g for 30 minutes and the pellet was resuspended in buffer containing 20 mM glycine-glycine, 1 mM MgCl2, 250 mM sucrose, pH 7.2, for storage at −80° C. […]

Like-named read-outs stand apart in the source and are kept apart here. Numbered stars: 1 amine (or outer) side, 2 acyl side, 3 side chain; on linkers, the order of the positions; unused ones are H or OH. Bridge positions count the residues as written; N and C are the ends. Square brackets hold non-standard residues; d marks the D form. Peptide text beside a SMILES is read from it. X1 = CN1C[C@H](CSCCN(CCSC[C@@H]2C[C@@H]3c4cccc5[nH]cc(c45)C[C@H]3N(C)C2)[C@H](CCCCN[*:2])C(=O)[*:1])C[C@@H]2c3cccc4[nH]cc(c34)C[C@H]21

Sequence of hSSTR3 (P32745 whole entry): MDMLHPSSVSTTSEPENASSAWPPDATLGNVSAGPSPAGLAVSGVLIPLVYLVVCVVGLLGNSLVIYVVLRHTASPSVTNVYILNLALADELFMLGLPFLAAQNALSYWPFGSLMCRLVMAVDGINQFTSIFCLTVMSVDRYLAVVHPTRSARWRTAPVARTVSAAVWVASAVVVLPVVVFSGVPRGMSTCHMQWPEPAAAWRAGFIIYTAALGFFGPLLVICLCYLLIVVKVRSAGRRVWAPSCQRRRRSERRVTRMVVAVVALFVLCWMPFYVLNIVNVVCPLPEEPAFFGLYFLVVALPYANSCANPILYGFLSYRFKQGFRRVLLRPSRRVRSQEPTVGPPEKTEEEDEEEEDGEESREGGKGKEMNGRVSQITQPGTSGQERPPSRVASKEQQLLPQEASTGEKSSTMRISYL
T2 sequence (P30874 whole entry): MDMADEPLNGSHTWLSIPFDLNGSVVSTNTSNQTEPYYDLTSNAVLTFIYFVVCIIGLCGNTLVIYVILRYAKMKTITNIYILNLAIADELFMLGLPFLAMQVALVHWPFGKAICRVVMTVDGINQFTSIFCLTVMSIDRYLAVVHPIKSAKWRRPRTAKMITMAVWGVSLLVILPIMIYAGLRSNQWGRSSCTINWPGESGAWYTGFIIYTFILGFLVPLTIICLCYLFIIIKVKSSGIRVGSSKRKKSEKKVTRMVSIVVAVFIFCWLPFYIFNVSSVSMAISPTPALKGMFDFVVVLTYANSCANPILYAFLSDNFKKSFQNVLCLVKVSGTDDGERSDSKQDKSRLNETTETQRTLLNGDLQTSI
Sequence of hSSTR4 (P31391 whole entry): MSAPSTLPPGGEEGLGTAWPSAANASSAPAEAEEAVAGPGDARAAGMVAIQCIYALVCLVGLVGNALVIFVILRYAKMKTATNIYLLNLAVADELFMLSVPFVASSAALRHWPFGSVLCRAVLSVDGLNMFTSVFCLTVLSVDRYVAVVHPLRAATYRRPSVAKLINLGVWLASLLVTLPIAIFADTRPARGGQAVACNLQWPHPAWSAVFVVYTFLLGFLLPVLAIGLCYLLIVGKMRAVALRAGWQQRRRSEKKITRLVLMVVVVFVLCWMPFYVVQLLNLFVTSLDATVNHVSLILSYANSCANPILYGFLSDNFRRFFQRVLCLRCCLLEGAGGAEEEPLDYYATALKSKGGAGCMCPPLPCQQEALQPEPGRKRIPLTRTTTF

Take `C[C@@H](O)[C@@H]1NC(=O)[C@H](CCCCN)NC(=O)[C@@H](Cc2c[nH]c3ccccc23)NC(=O)[C@H](Cc2ccncc2)NC(=O)[C@H](Cc2ccccc2)NC(=O)[C@H](CCCNC(=N)N)NC(=O)[C@H](NC[C@H](Cc2ccc(O)cc2)NC(=O)CSC[C@@H]2C[C@@H]3c4cccc5[nH]cc(c45)C[C@H]3N(C)C2)CCCCNC(=O)[C@H](Cc2ccccc2)NC1=O` [Compound 4, Dop1-Tyr-psi(CH2NH)-cyclo(DLys-Arg-Phe-4Pal-DTrp-Lys-Thr-Phe)]: at hDRD2 [1], the EC50 turned out to be 20.1 ± 2.6 nM. Also, on hSSTR2 [2], the EC50 was determined as 7.6 ± 1.5 nM and the Emax is 100 ± 2.9%. On hSSTR2 [2] (calcium mobilization), the “improvement in EC50 and/or % Emax over Reference Compound B” value is reported as “statistically significant improvement”. For the same molecule, the “Growth hormone suppressing activity compared to parent somatostatin analogs” value in experiment [3] was “enhanced Growth hormone suppressing activity”.
On to `C[C@@H](O)[C@@H]1NC(=O)[C@H](CCCCN)NC(=O)[C@@H](Cc2c[nH]c3ccccc23)NC(=O)[C@H](Cc2ccccc2)NC(=O)[C@H](Cc2ccccc2)NC(=O)[C@H](CCCNC(=N)N)NC(=O)[C@H](N(CCSC[C@@H]2C[C@@H]3c4cccc5[nH]cc(c45)C[C@H]3N(C)C2)CCSC[C@@H]2C[C@@H]3c4cccc5[nH]cc(c45)C[C@H]3N(C)C2)CCCCNC(=O)[C@H](Cc2ccccc2)NC1=O` [Compound 40, bis[Dop1-psi(CH2N)]-cyclo(DLys-Arg-Phe-Phe-DTrp-Lys-Thr-Phe)] (RFF[dW]KTF; linker N-C via X1), for which the Emax at hSSTR2 [2] came out at 95 ± 6.1%. For the same molecule, the Ki on hDRD2 [4] was determined as 445 ± 143 nM.
Turning to `C[C@@H](O)[C@@H]1NC(=O)[C@H](CCCCN)NC(=O)[C@@H](Cc2c[nH]c3ccccc23)NC(=O)[C@H](Cc2ccccc2)NC(=O)[C@H](Cc2ccccc2)NC(=O)[C@H](CCCNC(=N)N)NC(=O)[C@H](NCCS(=O)(=O)C[C@@H]2C[C@@H]3c4cccc5[nH]cc(c45)C[C@H]3N(C)C2)CCCCNC(=O)[C@H](Cc2ccc(F)cc2)NC1=O` [Compound 10, Dop1(SO2)-psi(CH2NH)-cyclo(DLys-Arg-Phe-Phe-DTrp-Lys-Thr-4FPhe)], the inhibition constant (Ki) is 27.9 nM at hSSTR3 and 20.6 nM on hSSTR4. Also, the maximal response (Emax) at hSSTR2 [2] stood at 84.8 ± 13%.
Regarding `C[C@@H](O)[C@@H]1NC(=O)[C@H](CCCCN)NC(=O)[C@@H](Cc2c[nH]c3ccccc23)NC(=O)[C@H](Cc2ccccc2)NC(=O)[C@H](Cc2ccccc2)NC(=O)[C@H](CCCNC(=N)N)NC(=O)[C@H](NC[C@H](Cc2ccc(O)cc2)NC(=O)CSC[C@@H]2C[C@@H]3c4cccc5[nH]cc(c45)C[C@H]3N(C)C2)CCCCNC(=O)[C@H](Cc2ccc(F)cc2)NC1=O` [Compound 5, Dop1-Tyr-psi(CH2NH)-cyclo(DLys-Arg-Phe-Phe-DTrp-Lys-Thr-4FPhe)], the EC50 on hDRD2 [1] was 30.1 ± 5.3 nM. Also, on hSSTR2 [2], the EC50 came out at 14.6 ± 1.9 nM and the maximal effect (Emax) was determined as 97 ± 3.6%. In addition, the “improvement in EC50 and/or % Emax over Reference Compound B” value at hSSTR2 [2] (calcium mobilization) is “statistically significant improvement”. Further, the “Growth hormone suppressing activity compared to parent somatostatin analogs” value in experiment [3] was “enhanced Growth hormone suppressing activity”.
As to `C[C@@H](O)[C@@H]1NC(=O)[C@H](CCCCN)NC(=O)[C@@H](Cc2c[nH]c3ccccc23)NC(=O)[C@H](Cc2ccncc2)NC(=O)[C@H](Cc2ccccc2)NC(=O)[C@H](CCCNC(=N)N)NC(=O)[C@H](NCC[S@+]([O-])C[C@@H]2C[C@@H]3c4cccc5[nH]cc(c45)C[C@H]3N(C)C2)CCCCNC(=O)[C@H](Cc2ccc(O)cc2)NC1=O` [Compound 11, Dop1[(R)SO]-psi(CH2NH)-cyclo(DLys-Arg-Phe-4Pal-DTrp-Lys-Thr-Tyr)], the results for the inhibition constant Ki at hSSTR3 and at hSSTR4 were 30.9 ± 11.7 nM and 2.1 ± 0.4 nM, respectively. On hSSTR2 [2], the Emax was determined as 92.3 ± 4.6%.
Turning to `C[C@@H](O)[C@@H]1NC(=O)[C@H](CCCCN)NC(=O)[C@@H](Cc2c[nH]c3ccccc23)NC(=O)[C@H](Cc2cccnc2)NC(=O)[C@H](Cc2ccccc2)NC(=O)[C@H](CCCNC(=N)N)NC(=O)[C@H](NC[C@H](Cc2ccc(O)cc2)NC(=O)CSC[C@@H]2C[C@@H]3c4cccc5[nH]cc(c45)C[C@H]3N(C)C2)CCCCNC(=O)[C@H](Cc2ccccc2)NC1=O` [Compound 38, Dop1-Tyr-psi(CH2NH)-cyclo(DLys-Arg-Phe-3Pal-DTrp-Lys-Thr-Phe)], the Ki at hSSTR2 [5] was 0.76 ± 0.23 nM. The EC50 amounted to 7.5 ± 0.1 nM at hDRD2 [1] and 24.9 ± 7.7 nM on hSSTR2 [2] (calcium mobilization, read-out: hSSTR2 EC50 (nM) ± SEM). Moreover, the Emax on hSSTR2 [2] (maximal effect in percentage of the maximal effect of SRIF-14) was determined as 83.5 ± 4.4%.
For the molecule `CC(=O)N(CCC(=O)NC(CN[C@@H]1CCCCNC(=O)[C@H](Cc2ccc(F)cc2)NC(=O)[C@H]([C@@H](C)O)NC(=O)[C@H](CCCCN)NC(=O)[C@@H](Cc2c[nH]c3ccccc23)NC(=O)[C@H](Cc2ccccc2)NC(=O)[C@H](Cc2ccccc2)NC(=O)[C@H](CCCNC(=N)N)NC1=O)Cc1ccc(O)cc1)C[C@@H]1C[C@@H]2c3cccc4[nH]cc(c34)C[C@H]2N(C)C1` (single isomer, unassigned) [Compound 27, 3-[N-acetyl-N-(D-6-methyl-8β-ergolinylmethyl)]-aminopropionyl-Tyr-psi(CH2NH)-cyclo(DLys-Arg-Phe-Phe-DTrp-Lys-Thr-4FPhe)], the EC50 on hDRD2 [1] was 50.7 ± 6.8 nM; on hSSTR2 [2], 11.4 ± 2 nM. Further, the Emax on hSSTR2 [2] stood at 95.9 ± 2.4%.
With `C[C@@H](O)[C@@H]1NC(=O)[C@H](CCCCN)NC(=O)[C@@H](Cc2c[nH]c3ccccc23)NC(=O)[C@H](Cc2ccccc2)NC(=O)[C@H](Cc2ccccc2)NC(=O)[C@H](CCCNC(=N)N)NC(=O)[C@H](NCCSC[C@@H]2C[C@@H]3c4cccc5[nH]cc(c45)C[C@H]3N(C)C2)CCCCNC(=O)[C@H](Cc2ccc(F)cc2)NC1=O` [Compound 6, Dop1-psi(CH2NH)-cyclo(DLys-Arg-Phe-Phe-DTrp-Lys-Thr-4FPhe)], the values for the Emax on hDRD2 [1] (read-out: hDRD2 % Emax ± SEM) and on hSSTR2 [2] were 88.3 ± 5.1% and 99.1 ± 0.6%, respectively. At hSSTR2 [2] (Student's t-test, one-tailed, p <0.05), the “improvement in EC50 over Reference Compound A” value is on record as “statistically significant improvement”.
Turning to `C[C@@H](O)[C@@H]1NC(=O)[C@H](CCCCN)NC(=O)[C@@H](Cc2c[nH]c3ccccc23)NC(=O)[C@H](Cc2ccncc2)NC(=O)[C@H](Cc2ccccc2)NC(=O)[C@H](CCCNC(=N)N)NC(=O)[C@H](NCC[S@@+]([O-])C[C@@H]2C[C@@H]3c4cccc5[nH]cc(c45)C[C@H]3N(C)C2)CCCCNC(=O)[C@H](Cc2ccc(O)cc2)NC1=O` [Compound 12, Dop1[(S)SO]-psi(CH2NH)-cyclo(DLys-Arg-Phe-4Pal-DTrp-Lys-Thr-Tyr)], the Ki on hSSTR3 was 143 ± 65.2 nM; at hSSTR4, 3.2 ± 0.7 nM. Also, the Emax at hSSTR2 [2] amounted to 90.9 ± 12.9%.
